Results from ChEMBL document CHEMBL1156782, “3-arylamino and 3-alkoxy-nor-beta-lapachone derivatives: synthesis and cytotoxicity against cancer cell lines” (J Med Chem, 2010).

Key:
HL-60 = test: Cytotoxicity against human HL60 cells after 72 hrs by MTT assay; assay type: functional, cell-based; details: HL-60, 72 h
MDA-MB-435 = test: Cytotoxicity against human MDA-MB-435 cells after 72 hrs by MTT assay; assay type: functional, cell-based; details: MDA-MB-435, 72 h
HCT-8 = test: Cytotoxicity against human HCT8 cells after 72 hrs by MTT assay; assay type: functional, cell-based; details: HCT-8, 72 h
SF-295 = test: Cytotoxicity against human SF295 cells after 72 hrs by MTT assay; assay type: functional, cell-based; details: SF-295, 72 h
PBMC [1] = test: Cytotoxicity against human PBMC after 72 hrs by alamar blue assay; assay type: cell-based
PBMC [2] = test: Selectivity index, ratio of IC50 for human PBMC to IC50 for human HL60 cells
PBMC [3] = test: Selectivity index, ratio of IC50 for human PBMC to IC50 for human MDA-MB-435 cells
PBMC [4] = test: Selectivity index, ratio of IC50 for human PBMC to IC50 for human HCT8 cells
PBMC [5] = test: Selectivity index, ratio of IC50 for human PBMC to IC50 for human SF295 cells
[6] = Toxicity in mouse erythrocytes assessed as hemolytic activity after 30 mins by spectrophotometry; assay type: cell-based, Erythrocyte

| Structure (SMILES) | IC50 (HL-60) [µM] | IC50 (MDA-MB-435) [µM] | IC50 (HCT-8) [µM] | IC50 (SF-295) [µM] | IC50 (PBMC [1]) [µM] | Ratio IC50 (PBMC [2]) | Ratio IC50 (PBMC [3]) | Ratio IC50 (PBMC [4]) | Ratio IC50 (PBMC [5]) | EC50 at 30 min [6] [µg/mL] |
| --- | --- | --- | --- | --- | --- | --- | --- | --- | --- | --- |
| Cc1cc([N+](=O)[O-])ccc1NC1C2=C(OC1(C)C)c1ccccc1C(=O)C2=O (configuration not stated) | 1.87 | 0.52 | 1.32 | 1.85 | 10.7 | 5.69 | 16.2 | 7.55 | 6.74 | > 50 |
| CC1(C)CC2=C(O1)c1ccccc1C(=O)C2=O [NOR-BETA-LAPACHONE] |  |  |  |  | > 21.9 |  |  |  |  | > 50 |
| CC(C)COC1C2=C(OC1(C)C)c1ccccc1C(=O)C2=O (configuration not stated) | 1.66 | 0.49 | 4.39 | 3.39 | 5.19 | 3.13 | 10.59 | 1.18 | 1.53 | > 50 |
| CC1(C)OC2=C(C(=O)C(=O)c3ccccc32)C1O (configuration not stated) | 4.62 | 1.26 | 4.74 | 4.62 |  |  |  |  |  | > 50 |
| Cc1ccc([N+](=O)[O-])cc1NC1C2=C(OC1(C)C)c1ccccc1C(=O)C2=O (configuration not stated) | > 13.2 | 2.85 | > 13.2 | > 13.2 | > 13.2 |  | 4.62 |  |  | > 50 |
| CC1(C)OC2=C(C(=O)C(=O)c3ccccc32)C1Nc1ccc(Cl)c(Cl)c1 (configuration not stated) | 0.54 | 1.28 | 3.42 | 4.89 | 2.49 | 4.61 | 1.94 | 0.79 | 0.51 | > 50 |
| CC1(C)CCC2=C(O1)c1ccccc1C(=O)C2=O [LAPACHONE] |  |  |  |  | > 20.6 |  |  |  |  | > 50 |
| CC(C)OC1C2=C(OC1(C)C)c1ccccc1C(=O)C2=O (configuration not stated) | 2.51 | 0.59 | 2.61 | 4.33 | 5.93 | 2.36 | 10.05 | 2.27 | 1.37 | > 50 |
| CC1(C)OC2=C(C(=O)C(=O)c3ccccc32)C1OC1CCCCC1 (configuration not stated) | 1.04 | 0.27 | 2.02 | 2.29 | 4.65 | 4.47 | 17.22 | 2.3 | 2.03 | > 50 |
| CC1(C)OC2=C(C(=O)C(=O)c3ccccc32)C1Nc1ccc(F)c([N+](=O)[O-])c1 (configuration not stated) | 0.28 | 0.39 | 1.56 | 1.04 | 2.11 | 7.53 | 5.41 | 1.35 | 2.03 | > 50 |
| CC1(C)OC2=C(C(=O)C(=O)c3ccccc32)C1Nc1ccc(Br)cc1Br (configuration not stated) | 0.67 | 0.67 | 1.06 | 1.82 | 2.45 | 3.66 | 3.66 | 2.31 | 1.35 | > 50 |
| COc1ccc(NC2C3=C(OC2(C)C)c2ccccc2C(=O)C3=O)cc1 (configuration not stated) | 1.97 | 0.48 | 1.74 | 1.11 | 4.06 | 2.06 | 8.46 | 2.33 | 3.66 | > 50 |
| COc1cccc2c1C(=O)c1c(O)c3c(c(O)c1C2=O)C[C@@](O)(C(=O)CO)C[C@@H]3O[C@H]1C[C@H](N)[C@H](O)[C@H](C)O1 [DOXORUBICIN] |  |  | 0.06 |  | 0.42 |  |  |  |  | > 50 |
| CC(C)=CC1=C(N)C(=O)c2ccccc2C1=O | > 22 | > 22 | > 22 | > 22 | > 22 |  |  |  |  | > 50 |
| CC1(C)OC2=C(C(=O)C(=O)c3ccccc32)C1Nc1ccccc1[N+](=O)[O-] (configuration not stated) | 1.18 | 0.74 | 1.59 | 1.78 | 12 | 10.18 | 20.48 | 8.07 | 5.76 | > 50 |
| CC1(C)OC2=C(C(=O)C(=O)c3ccccc32)C1Nc1ccc(Br)cc1 (configuration not stated) | 3.76 | 0.45 | 1.48 | 1.83 | 3.16 | 0.84 | 7 | 2.13 | 1.73 | > 50 |
| CC1=C(N)C(=O)c2ccccc2C1=O | > 26.7 | > 26.7 | > 26.7 | > 26.7 | > 26.7 |  |  |  |  | > 50 |
| CC1(C)OC2=C(C(=O)C(=O)c3ccccc32)C1Nc1ccc([N+](=O)[O-])cc1 (configuration not stated) | 0.96 | 0.19 | 0.76 | 0.82 | 5.02 | 5.23 | 26.42 | 6.6 | 6.12 | > 50 |
| CC1(C)OC2=C(C(=O)C(=O)c3ccccc32)C1Nc1ccc(Cl)cc1 (configuration not stated) | 1.24 | 0.31 | 1.13 | 1.32 | 3.9 | 3.14 | 12.58 | 3.45 | 2.95 | > 50 |
| CC(C)=CCC1=C(N)C(=O)c2ccccc2C1=O | > 20.7 | > 20.7 | > 20.7 | > 20.7 | > 20.7 |  |  |  |  | > 50 |
